{"source": "patent US20040204488A1", "about": "“S-[2-[(1-Iminoethyl)amino]ethyl]-2-methyl-L-cysteine maleate crystalline salt” (priority 2003, published 2004)", "type_in_all_cases": "physicochemical", "key": {"Moisture sorption": {"assay": "Moisture sorption", "conditions": "90% R.H. and 25° C.", "description": "The novel salt is characterized by some or all of the following physical measurements: elemental analysis (such as by combustion analysis), melting point and heat of fusion (differential scanning calorimetry and thermogravimetric analysis), refractive indices (polarized light microscopy), x-ray powder diffraction pattern, moisture sorption (for example, DVS moisture balance) and vibrational signature (Raman spectrum).\nFIG. 12 is a plot of a moisture sorption study of S-[2-[(1-Iminoethyl)amino]ethyl]-2-methyl-L-cysteine maleate."}, "physchem [1]": {"assay": "physchem", "conditions": "water"}, "physchem [2]": {"assay": "physchem", "conditions": "pKa of amidine ion", "description": "The parent S-[2-[(1-Iminoethyl)amino]ethyl]-2-methyl-L-cysteine molecule has 3 ionizable groups and can exist in 4 ionization states.\nAt low pH, the molecule exists as a +2 charged free acid, with the carboxylic acid, amine and amidine moieties protonated. This is the ionization state for the dihydrochloride salt. The initial lots of S-[2-[(1-Iminoethyl)amino]ethyl]-2-methyl-L-cysteine (dihydrochloride) contained around 0.3 eq of excess HCl.\nAs the pH is increased, the carboxylic acid group is the first group to deprotonate, and this produces a net charge on the molecule of +1. If the pH increase is generated by addition of sodium hydroxide to S-[2-[(1-Iminoethyl)amino]ethyl]-2-methyl-L-cysteine, the sodium dihydrochloride salt is formed. If the increase in pH is due to removal of chloride ions by anion exchange processing, the product is the monohydrochloride salt with no sodium.\nA positive charge still resides on the amidine, and a negative charge still resides on the carboxyl group. If such material is made by the addition of sodium hydroxide to the dihydrochloride, the resulting product is the monohydrochloro sodium salt, mixed with one equivalent of sodium chloride. The material prepared by the anion exchange resin approach is the free zwitterion.\nFurther increases in pH lead to deprotonation of the amidine ion (pKa ˜12.5). […]"}, "[3]": {"assay": "Solution stability of anion-exchange titration samples by HPLC (Example 8)", "conditions": "fractions of resin titration", "protocol": "(§1) Cation exchange column cuts containing approximately 0.9 g of S-[2-[(1-Iminoethyl)amino]ethyl]-2-methyl-L-cysteine di-hydrochloride in 142 ml HCl/water solution, were concentrated on a rotary evaporator at 60° C. to an oil. To the oil, diluted to 60 ml with deionized water, was added aliquots of 0.5 g of washed anion exchange resin while stirring. At five minutes after each aliquot of resin was added, the solution pH was measured and a sample removed through a syringe filter. A total of 9 g of anion exchange resin was added. The final pH was 10.8. The resin was removed by filtration and the filtrate was concentrated to an oil by rotary evaporation at 60° C.; no solids formed. The starting material, final filtrate and all intermediate samples were assayed by HPLC and ion chromatography for chloride.\n3.3 g a sample containing about 1 g of S-[2-[(1-Iminoethyl)amino]ethyl]-2-methyl-L-cysteine di-hydrochloride was diluted to 20 g. Aliquots of prewashed Amberlite IRA400 (OH) resin was added to the solution and samples were periodically withdrawn through a syringe filter. […] The starting materials, intermediate samples and final filtrate were analyzed. […] Samples were drawn at pH of 8.13 and 1.63 and analyzed by HPLC.\nIn the repeat of the above experiment, the resulting samples were analyzed by HPLC. […]"}, "[4]": {"assay": "Pseudo-titration in water with IRA-400(OH) anion exchange resin (pH vs resin added)", "protocol": "60 g of Amberlite IRA400 (OH) resin was prewashed with 4.7 percent (by weight) ammonium hydroxide (50 ml of 28 percent ammonium hydroxide, 250 ml deionized water), followed by extensive washing with deionized water. The final conductivity was 6.1 μS.\nas §1\nThe diamond (solid line) is pH and square (dashed line) is S-[2-[(1-Iminoethyl)amino]ethyl]-2-methyl-L-cysteine (percent initial, by ion chromatography). […] The diamond (solid line) is pH and triangle (broken line) is chloride (by ion chromatography).\nThese curves are not true titration curves since samples were withdrawn during the progress of the reaction, and since true equilibrium was not attained before the increments of resin were added. Nevertheless, the graphs of FIG. 2 and FIG. 3 illustrate the expected trends. As resin is added to the S-[2-[(1-Iminoethyl)amino]ethyl]-2-methyl-L-cysteine solution the pH rises with change in slope around pH's of 2, 9 and 11. The pH's of slower rise are representative of the pK's of the carboxylic acid, amine and amidine functional groups, respectively. Above a pH of 10, the S-[2-[(1-Iminoethyl)amino]ethyl]-2-methyl-L-cysteine concentration in solution decreases. At this point, the S-[2-[(1-Iminoethyl)amino]ethyl]-2-methyl-L-cysteine is gaining a net negative charge and is binding to the resin. […]"}}}
{"smiles": "CC(=N)NCCSC[C@](C)(N)C(=O)O.O=C(O)/C=C\\C(=O)O", "note": "[S-[2-[(1-Iminoethyl)amino]ethyl]-2-methyl-L-cysteine maleate]", "values": [{"measurement": "water absorbed by weight", "setting": "Moisture sorption", "value": "less than one percent"}, {"measurement": "solubility", "setting": "physchem [1]", "value": "> 230", "unit": "mg/mL"}]}
{"smiles": "CC(=N)NCCSC[C@](C)(N)C(=O)O", "note": "[S-[2-[(1-Iminoethyl)amino]ethyl]-2-methyl-L-cysteine]", "values": [{"measurement": "pKa", "setting": "physchem [2]", "value": "~12.5"}, {"measurement": "degradation of titration fractions by HPLC", "setting": "[3]", "value": "no degradation"}, {"measurement": "pH of slower rise representative of pK of amidine group", "setting": "[4]", "value": "~11"}, {"measurement": "pH of slower rise representative of pK of amine group", "setting": "[4]", "value": "~9"}, {"measurement": "pH of slower rise representative of pK of carboxylic acid group", "setting": "[4]", "value": "~2"}]}
